Here are results for 23 molecules from ChEMBL document CHEMBL1201862, “PubChem BioAssay data set” (2004).

The target in experiment [1] is T1, Replicative DNA helicase DnaB (Mycobacterium tuberculosis, UniProt P9WMR3).
T1 sequence (P9WMR3 whole entry): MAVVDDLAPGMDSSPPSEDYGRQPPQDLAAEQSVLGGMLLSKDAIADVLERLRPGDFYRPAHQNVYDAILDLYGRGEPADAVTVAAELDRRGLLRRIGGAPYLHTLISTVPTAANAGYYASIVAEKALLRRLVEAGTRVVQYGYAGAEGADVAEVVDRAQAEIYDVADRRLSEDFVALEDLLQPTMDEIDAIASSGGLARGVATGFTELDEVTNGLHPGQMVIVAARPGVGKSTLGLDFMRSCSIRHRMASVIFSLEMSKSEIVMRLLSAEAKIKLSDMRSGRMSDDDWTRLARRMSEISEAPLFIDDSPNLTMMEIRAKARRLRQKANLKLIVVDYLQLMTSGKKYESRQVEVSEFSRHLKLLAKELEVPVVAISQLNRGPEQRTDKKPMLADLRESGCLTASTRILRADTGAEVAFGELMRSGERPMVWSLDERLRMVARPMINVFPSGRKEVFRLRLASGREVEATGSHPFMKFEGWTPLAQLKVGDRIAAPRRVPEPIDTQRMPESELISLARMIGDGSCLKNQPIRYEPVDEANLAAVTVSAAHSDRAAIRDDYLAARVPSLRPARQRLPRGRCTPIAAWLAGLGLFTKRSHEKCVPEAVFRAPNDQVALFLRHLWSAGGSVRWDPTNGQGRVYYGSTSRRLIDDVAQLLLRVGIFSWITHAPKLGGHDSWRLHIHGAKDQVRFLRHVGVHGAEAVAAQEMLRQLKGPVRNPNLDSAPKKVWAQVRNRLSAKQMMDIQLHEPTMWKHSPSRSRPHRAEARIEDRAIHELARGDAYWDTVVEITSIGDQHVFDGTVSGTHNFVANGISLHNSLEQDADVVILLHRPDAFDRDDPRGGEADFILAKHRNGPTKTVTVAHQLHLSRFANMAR
The experiment in a line: DnaB intein splicing inhibitors, dose response, biochemical, cell-free fluorescence (AID 449749). It counts as functional.

In experiment [2] the target is T2, Protein RecA (Mycobacterium tuberculosis, UniProt P9WHJ3).
T2 sequence (P9WHJ3 whole entry): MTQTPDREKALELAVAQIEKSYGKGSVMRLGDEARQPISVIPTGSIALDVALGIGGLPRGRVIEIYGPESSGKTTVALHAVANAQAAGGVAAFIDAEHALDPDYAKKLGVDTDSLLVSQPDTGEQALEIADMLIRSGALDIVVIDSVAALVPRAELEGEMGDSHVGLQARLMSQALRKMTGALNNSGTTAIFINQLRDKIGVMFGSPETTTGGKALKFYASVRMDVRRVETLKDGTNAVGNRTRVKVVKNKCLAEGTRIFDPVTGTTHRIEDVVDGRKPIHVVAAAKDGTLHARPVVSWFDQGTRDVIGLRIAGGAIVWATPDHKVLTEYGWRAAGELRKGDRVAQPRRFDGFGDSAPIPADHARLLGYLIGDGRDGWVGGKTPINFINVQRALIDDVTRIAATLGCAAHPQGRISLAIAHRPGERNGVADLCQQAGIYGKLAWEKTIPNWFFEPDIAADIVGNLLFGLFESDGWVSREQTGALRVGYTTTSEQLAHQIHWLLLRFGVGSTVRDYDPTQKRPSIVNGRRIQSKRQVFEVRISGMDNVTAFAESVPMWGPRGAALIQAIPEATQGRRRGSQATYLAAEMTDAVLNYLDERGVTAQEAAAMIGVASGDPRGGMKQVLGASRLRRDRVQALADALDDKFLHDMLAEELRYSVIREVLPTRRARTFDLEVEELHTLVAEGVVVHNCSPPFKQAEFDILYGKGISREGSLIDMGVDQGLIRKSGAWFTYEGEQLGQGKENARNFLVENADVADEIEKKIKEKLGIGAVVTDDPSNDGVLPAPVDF
The experiment in a line: Fluorescence Cell-Free Homogeneous Dose Retest to Identify Inhibitors of RecA-Intein Splicing Activity. [Related pubchem assays (depositor defined):AID2097, AID2223, AID489010, AID492950]. The class given is functional.

For experiment [3], the system named is Streptococcus sp. 'group A'. In words: growth inhibition of control SK(-) GAS strain, dose response, counter-screen for streptokinase expression inhibitor project, luminescence, kanamycin, BacTiterGlo, confirmation (AID 1900). The class given is functional, organism-based.
The target of experiment [4] is T3, Streptokinase A (Streptococcus pyogenes serotype M1, UniProt P10520).
T3 sequence (P10520 whole entry): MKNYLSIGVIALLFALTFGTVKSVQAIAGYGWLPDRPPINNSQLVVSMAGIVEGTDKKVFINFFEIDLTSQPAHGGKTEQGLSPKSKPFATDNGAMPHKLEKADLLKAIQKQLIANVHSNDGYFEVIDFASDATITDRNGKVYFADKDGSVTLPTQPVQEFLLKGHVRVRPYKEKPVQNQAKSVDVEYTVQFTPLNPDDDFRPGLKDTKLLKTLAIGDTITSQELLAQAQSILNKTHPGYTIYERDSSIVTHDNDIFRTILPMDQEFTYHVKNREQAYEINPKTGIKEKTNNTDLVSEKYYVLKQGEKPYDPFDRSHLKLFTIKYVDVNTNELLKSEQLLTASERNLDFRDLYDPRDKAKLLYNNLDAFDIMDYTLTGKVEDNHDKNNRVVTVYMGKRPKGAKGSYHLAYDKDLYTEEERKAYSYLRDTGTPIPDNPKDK
In words: S. pyogenes streptokinase expression inhibitors, potency, dose response, plasminogen activation absorbance, OD405 (AID 1914).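 Also: secreted streptokinase activity via plasminogen activation per viability signal from cell pellet.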 It counts as functional, Streptococcus pyogenes M1 GAS.

The subject of experiment [5] is Streptococcus. In words: Group A Streptococcus viability loss, dose response, counter-screen for streptokinase expression inhibitor project, luminescence, BacTiterGlo (AID 1915).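 Also: potency for reduction of bacterial viability or growth.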 It counts as functional, organism-based.
Experiment [6] deals with Cytochrome P450 2D6 (Homo sapiens, UniProt P10635).
Cytochrome P450 2D6, sequence (P10635 whole entry): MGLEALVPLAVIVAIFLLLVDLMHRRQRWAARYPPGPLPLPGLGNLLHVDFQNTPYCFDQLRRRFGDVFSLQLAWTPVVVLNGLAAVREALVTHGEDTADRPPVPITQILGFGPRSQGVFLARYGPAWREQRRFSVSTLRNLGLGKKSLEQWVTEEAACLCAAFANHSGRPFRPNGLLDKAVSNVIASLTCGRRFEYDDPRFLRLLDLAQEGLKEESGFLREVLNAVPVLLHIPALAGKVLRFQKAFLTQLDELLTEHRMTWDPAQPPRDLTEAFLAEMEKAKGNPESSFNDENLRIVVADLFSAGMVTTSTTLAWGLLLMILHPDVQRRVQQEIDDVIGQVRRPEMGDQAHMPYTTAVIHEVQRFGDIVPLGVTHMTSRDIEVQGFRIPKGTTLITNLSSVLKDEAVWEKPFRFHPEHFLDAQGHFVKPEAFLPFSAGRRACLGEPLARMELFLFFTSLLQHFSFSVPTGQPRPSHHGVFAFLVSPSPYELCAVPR
Experiment [7] has as its target Cytochrome P450 3A4 (Homo sapiens, UniProt P08684).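 Also: CYP3A4 tested as one member of a cytochrome P450 panel screen.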
A short description of experiment [8]: Luminescence Cell-Based Dose Confirmation HTS to Identify Activators of 5'UTR Stem-Loop Driven Alpha-Synuclein mRNA Translation in H4 Neuroglioblastoma Cells. [Related pubchem assays: 1829 (Project Summary), 1814 (Primary HTS)]. The class given is functional.
A short description of experiment [9]: Luminescence Cell-Based Dose Response HTS to Identify Activators of Luciferase Translation or Activity in H4 […] Cells. [Related pubchem assays: 1829 (Project Summary), 1814 (Primary HTS)]. The class given is functional.
Experiment [10] deals with H4. The experiment in a line: Luminescence Cell-Based Dose Response HTS to Identify Activators of 5'UTR Stem-Loop Driven Prion Protein mRNA Translation in H4 Neuroglioblastoma Cells. [Related pubchem assays: 1829 (Project Summary), 1814 (Primary HTS)]. The class given is functional. To be noted: Homo sapiens.
In experiment [11] the target is T4, Heat shock factor protein 1 (Mus musculus, UniProt P38532).
T4 sequence (P38532 whole entry): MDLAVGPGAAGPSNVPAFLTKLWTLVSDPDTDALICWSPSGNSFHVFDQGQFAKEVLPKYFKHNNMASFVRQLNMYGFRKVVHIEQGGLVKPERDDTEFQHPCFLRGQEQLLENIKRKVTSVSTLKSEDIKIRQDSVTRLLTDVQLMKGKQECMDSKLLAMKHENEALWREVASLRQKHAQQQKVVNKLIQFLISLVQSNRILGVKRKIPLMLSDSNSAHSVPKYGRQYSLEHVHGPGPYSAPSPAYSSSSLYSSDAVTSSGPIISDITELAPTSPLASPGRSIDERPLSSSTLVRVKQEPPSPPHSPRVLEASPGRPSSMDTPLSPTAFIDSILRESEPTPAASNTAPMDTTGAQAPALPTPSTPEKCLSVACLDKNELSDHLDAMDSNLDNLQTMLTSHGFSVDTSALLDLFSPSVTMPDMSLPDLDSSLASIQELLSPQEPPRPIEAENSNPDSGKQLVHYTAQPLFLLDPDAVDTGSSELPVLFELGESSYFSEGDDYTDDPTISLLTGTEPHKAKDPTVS
In words: inhibition of MG132-induced HSE-luciferase signal, confirmation, cell-based, NIH3T3, luminescence, dose retest (AID 2382).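 Also: NIH3T3 fibroblasts with HSF1-driven luciferase reporter stressed by proteasome inhibitor MG132; luminescence from HSF1-driven luciferase expression after 8 hours of MG132 stress.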 The class given is functional.

A short description of experiment [12]: cells. It counts as functional.

The source made the active and inactive calls. Rule as the data show it, for most assays here: actives have a measured EC50 and inactives only a lower limit.

Cytochrome P450 3A4, sequence (P08684 whole entry): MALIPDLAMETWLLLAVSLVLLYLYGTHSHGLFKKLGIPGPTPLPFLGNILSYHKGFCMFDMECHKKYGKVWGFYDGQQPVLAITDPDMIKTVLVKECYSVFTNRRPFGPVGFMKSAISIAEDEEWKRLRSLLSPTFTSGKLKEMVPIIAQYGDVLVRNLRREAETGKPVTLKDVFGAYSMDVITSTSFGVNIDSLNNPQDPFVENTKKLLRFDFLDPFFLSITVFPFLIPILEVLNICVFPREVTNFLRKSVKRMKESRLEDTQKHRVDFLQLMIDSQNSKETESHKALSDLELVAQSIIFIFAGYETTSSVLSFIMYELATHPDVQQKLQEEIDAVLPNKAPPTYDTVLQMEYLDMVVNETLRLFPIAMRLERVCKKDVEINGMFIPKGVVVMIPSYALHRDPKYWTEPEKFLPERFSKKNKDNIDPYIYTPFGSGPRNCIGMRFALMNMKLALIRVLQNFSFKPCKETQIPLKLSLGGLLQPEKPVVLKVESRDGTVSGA

In the case of `Cc1nc2ccccc2c2c1C(=O)N(C(C)C)C2=O`, the AC50 in experiment [1] was 192 µM (active). Besides, the EC50 in experiment [2] is 0.851 µM (active).

As for `O=C(c1ccccc1)c1c[nH]c(C(=O)C(Cl)(Cl)Cl)c1`, in experiment [1], the AC50 was 21.7 µM (active). The EC50 in experiment [2] was 8.23 µM (active).

Regarding `Cc1nn(Cc2ccccc2)c2c1C(c1ccco1)C(C#N)=C(N)O2` (stereo not given), in experiment [1], the AC50 is > 380 µM (inactive). In [2], the 50% effective concentration (EC50) is 3.15 µM (active).

Consider `Cc1nn(C(=O)c2cccnc2)c(C)c1Sc1ccc(Br)cc1`, for which the 50% effective concentration (EC50) in [3] is 11.1 µM (active); in experiment [4], > 150 µM (not active); in experiment [5] it was > 150 µM (not active); in experiment [2], 18.7 µM (active). In addition, the figures for the concentration at half-maximal activity (AC50) in experiment [1], in experiment [6] and in [7] were 4.61 µM (active), 25.1 µM (inconclusive) and 15.8 µM (inconclusive), respectively.

As for `O=C(c1ccc(F)cc1)c1ccc(-c2ccc(F)cc2)nc1`, the concentration for a half-maximal effect (EC50) was 4.41 µM (active) in [8], 11.9 µM (active) in experiment [9] and 11.6 µM (active) in experiment [10].

Take `O=C1NC2=C(CCc3ccccc32)C(c2ccccc2)N1` (stereo not given): the half-maximal activity concentration (AC50) in experiment [1] was 2.19 µM (active). Also, the EC50 in experiment [2] was 1.67 µM (active).

Consider `O=C(Nc1cc(Cl)ccc1-n1cncn1)c1ccc([N+](=O)[O-])o1`, for which the half-maximal effective concentration (EC50) in experiment [8] was > 120 µM (not active); in experiment [9], > 120 µM (not active); in experiment [3] it was 11.7 µM (active); in experiment [10], > 120 µM (not active); in experiment [4] it was 56.7 µM (inconclusive); in [5] it was > 150 µM (not active).

For the molecule `CC(C)(C)C(=O)Nc1ccc(N=Nc2ccccc2)cc1`, the EC50 was < 0.16 µM (active) in [11] and 2.85 µM (active) in [2]. In addition, in experiment [1], the AC50 was 4.35 µM (active).

Consider `O=C(NNC(=O)c1ccccc1F)c1ccc(-c2ccc(Cl)cc2)o1`, for which, in experiment [12], the IC50 is 8.21 µM (active).

Turning to `O=C(NC(NC(=S)Nc1ccc(Cl)cc1Cl)C(Cl)(Cl)Cl)c1cccc([N+](=O)[O-])c1` (stereo not given), in experiment [1], the half-maximal activity concentration (AC50) is 2.33 µM (active). Besides, the EC50 in [2] was 3.3 µM (active).

As to `O=C(c1ccccc1)[C@H]1[C@H](c2ccccc2)[C@@]2(N=C(c3ccccc3)OC2=O)C2c3ccccc3C=NN21` (stereo not given in full), the EC50 in experiment [8] was 6.71 µM (active); in [9] it was 19 µM (active); in [10], > 120 µM (not active).

For the molecule `CC(C)N(Cc1nccn1C)C(=O)CCc1nnc(CCCc2ccccc2)o1`, the EC50 is 12.7 µM (active) in experiment [8], 15.5 µM (active) in experiment [9] and 31.2 µM (active) in experiment [10].

Regarding `CCc1ccc(N2CCN(CCNC(=O)Nc3ccc(OC)cc3)CC2)cc1`, the IC50 in [12] is 38.2 µM (active).

Regarding `Cc1ccc(NC(=O)c2ocnc2C)cc1Cl`, the EC50 in experiment [8] was 0.145 µM (active); in experiment [9], 1.04 µM (active); in [10] it was 6.44 µM (active).

Regarding `O=[N+]([O-])c1ccc(/C=C2\CCC(C3=CCCC3)=C2N2CCOCC2)cc1`, the concentration for a half-maximal effect (EC50) in experiment [8], in experiment [9] and in experiment [10] was > 120 µM (not active) in each case.

For the molecule `CC(C)NC(=O)c1[nH]nc2c1CCc1ccccc1-2`, the EC50 in experiment [8] is 5.26 µM (active); in experiment [9], 56 µM (active); in experiment [10], 8.82 µM (active).

Consider `CSc1ccc(/C=C(/NC(=O)c2ccccc2)C(=O)N2CCN(C)CC2)cc1`, for which the EC50 in [8] is > 120 µM (not active); in [9], > 120 µM (not active); in [10], > 60 µM (not active).

Turning to `S=C(Nc1ccc(Br)cc1Cl)N1CCC2(CC1)OCCO2`, the EC50 in experiment [8] is > 120 µM (not active); in experiment [9], 23.5 µM (active); in [10], 16 µM (active).

As to `Cc1nn(-c2ccccc2)c2c1C1(C(=O)N3c4c(cccc41)C(C)CC3(C)C)C(C#N)=C(N)O2` (stereo not given), the AC50 in [1] is 4.61 µM (active). Also, the EC50 in experiment [2] is 3.2 µM (active).

`CCCn1c(N)c(Sc2ccc(C)cc2)c(=O)n(CCC)c1=O`: the half-maximal effective concentration (EC50) in [8], in [9] and in [10] was > 120 µM (not active) each time.

Take `O=C(CSc1nnc(-c2ccccc2Cl)o1)Oc1ccc(Br)cc1`: in [1], the concentration at half-maximal activity (AC50) was 1.42 µM (active). In addition, the EC50 in experiment [2] was 3 µM (active).

`C(=N\Nc1nc(-c2ccccc2)cs1)/c1cccnc1`: the EC50 was 0.198 µM (active) in experiment [8], 33.3 µM (active) in experiment [9] and 44.1 µM (active) in experiment [10].

Turning to `COc1cc(/C=N/n2c(C)nnc2S)ccc1OCc1ccc(F)cc1`, the EC50 in [8] was > 120 µM (not active); in experiment [9], > 120 µM (not active); in experiment [10] it was 32 µM (active).
